Experimental findings from ChEMBL document CHEMBL1148828, “Deoxycholic acid-derived tetraoxane antimalarials and antiproliferatives(1)” (J Med Chem, 2007) are described below.

One may read the GI50 as the concentration that inhibits growth by half. A lower GI50 goes with greater sensitivity of the cells. In general, TGI refers to the concentration giving total growth inhibition. Broadly, the IC50 is the concentration that gives 50% inhibition. By IC90 is commonly meant the concentration at which the effect reaches the 90% level. A high value points to weaker potency.

Active and inactive are the calls of the source. No cut-off for these calls is given here. Where only a bound is given, the exact number is not on record here.

For series [1], the system named is SN12C. The experiment in a line: Antiproliferative activity against human SN12C cells after 48 hrs. The series is classed as functional.
The subject of series [2] is HOP-92. The series is described as follows: Antiproliferative activity against human HOP92 cells after 48 hrs. The series is classed as functional. Particulars: Homo sapiens, HOP-92, 48 h.
Series [3] concerns LOX IMVI. The experiment in a line: Antiproliferative activity against human LOX IMVI cells after 48 hrs. The series is classed as functional.
Series [4] deals with Liver microsomes. The series is described as follows: Metabolic stability in human liver microsomes. It is filed as ADME, Microsome. The settings on record: microsomes. (Liver microsomes are vesicles of endoplasmic reticulum, rich in cytochrome P450 enzymes.)
Series [5] concerns CCRF-CEM. The experiment in a line: Antiproliferative activity against human CCRF-CEM cells after 48 hrs. The series is classed as functional.
The test system of series [6] is Plasmodium falciparum. The experiment in a line: Antimalarial activity against Plasmodium falciparum D6. The series is classed as functional, organism-based.
Series [7] relates to ACHN. The series is described as follows: Antiproliferative activity against human ACHN cells after 48 hrs. It is filed as functional.
Series [8] has as its system NCI. The series is described as follows: Growth inhibition of human NCI DTP 60 cells. It is filed as functional.
The subject of series [9] is MDA-MB-435. The experiment in a line: Antiproliferative activity against human MDA-MB-435 cells after 48 hrs. The series is classed as functional.
Series [10] deals with Plasmodium falciparum. The experiment in a line: Antimalarial activity against Plasmodium falciparum TM91C235. The series is classed as functional, organism-based.
Series [11] has as its system Plasmodium falciparum. The series is described as follows: Antimalarial activity against Plasmodium falciparum W2. The series is classed as functional, organism-based.
Series [12] can be described thus: Metabolic stability in mouse liver microsomes. It is filed as ADME, Microsome. The settings on record: microsomes.
Series [13] deals with NCI-H23. The experiment in a line: Antiproliferative activity against human NCI-H23 cells after 48 hrs. The series is classed as functional. The settings on record: NCI-H23, 48 h.
The test system of series [14] is Mus musculus. The series is described as follows: Survival of Plasmodium berghei KBG 173 infected CD1 mice (Mus musculus) at 320 mg/kg/day. The series is classed as ADME, organism-based. The settings on record: in vivo.
The subject of series [15] is Mus musculus. The series is described as follows: Survival of Plasmodium berghei KBG 173 infected CD1 mice (Mus musculus) at 80 mg/kg/day. Particulars: in vivo. It is filed as ADME, organism-based.
Series [16] relates to Plasmodium berghei. The experiment in a line: Antimalarial activity as survivors after 31 days in Plasmodium berghei KBG173 infected CD1 mice (Mus musculus) at 20 mg/kg/day. The series is classed as functional, organism-based. Particulars: KBG 173.
Series [17] has as its system Plasmodium berghei. The series is described as follows: Antimalarial activity as survivors after 31 days in Plasmodium berghei KBG173 infected CD1 mice (Mus musculus) at 40 mg/kg/day. It is filed as functional, organism-based. Particulars: KBG 173.
Series [18] relates to Plasmodium berghei. The series is described as follows: Antimalarial activity as survivors after 31 days in Plasmodium berghei KBG173 infected CD1 mice (Mus musculus) at 80 mg/kg/day. The settings on record: KBG 173. It is filed as functional, organism-based.

Regarding `CC(=O)O[C@H]1C[C@H]2[C@@H]([C@H](OC(C)=O)C[C@@H]3CC4(CC[C@@]32C)OOC2(CCC(C)CC2)OO4)[C@@H]2CC[C@H]([C@H](C)CCC(=O)NCCN(C)C)[C@@]12C` (stereo in doubt; 23) [listing 1 of 2 here], the GI50 stood at 606 nM in series [1]; 70 nM in series [2]; 57 nM in series [3]; 67 nM in series [5]; 592 nM in [7]; 57 nM in series [8]. The GI50 in series [9] is 650 nM; in series [13], 318 nM. Further, the LC50 (concentration killing 50% of cells) in [1] is 2720 nM; in series [2], 2860 nM; in series [3] (Homo sapiens, LOX IMVI, 48 h), 295 nM; in series [5] (Homo sapiens, CCRF-CEM, 48 h) it was 340 nM; in [7], 2640 nM; in series [13], 3110 nM. The TGI in series [1] worked out at 1280 nM; in series [2] it was 695 nM; in [3] (Homo sapiens, LOX IMVI, 48 h), 130 nM; in series [5], 151 nM; in [7], 1250 nM; in series [9], 1340 nM. In addition, the concentration for total growth inhibition (TGI) in series [13] worked out at 1690 nM. Also, the values for the t1/2 in series [4] and in series [12] were 2 h and over 2 h, respectively. Further, the IC50 stood at 43.8 nM in series [6], 39.2 nM in series [10] and 43.5 nM in series [11]. Further, the IC90 in series [6] was 71.2 nM; in [10], 102 nM; in series [11], 94 nM. Also, the CC50 in series [9] (read-out: LC50 (the source's name)) came out at 2780 nM. Besides, the Survival in [14] was determined as 17 days; in series [15] it was 11 days.

Regarding `CC(=O)O[C@H]1C[C@H]2[C@@H]([C@H](OC(C)=O)C[C@@H]3CC4(CC[C@@]32C)OOC2(CCC(C)CC2)OO4)[C@@H]2CC[C@H]([C@H](C)CCC(=O)NCCN(C)C)[C@@]12C` (stereo in doubt; 22), the outcome in series [16] was inactive.

On to `CC(=O)O[C@H]1C[C@H]2[C@@H](CC[C@@H]3CC4(CC[C@@]32C)OOC2(CCC(C)CC2)OO4)[C@@H]2CC[C@H]([C@H](C)CCC(=O)NCCN(C)C)[C@@]12C` (stereo in doubt; 16), for which the result in series [17] was inactive.

As for `CC(=O)O[C@H]1C[C@H]2[C@@H]([C@H](OC(C)=O)C[C@@H]3CC4(CC[C@@]32C)OOC2(CCC(C)CC2)OO4)[C@@H]2CC[C@H]([C@H](C)CCC(=O)NCCN(C)C)[C@@]12C` (stereo in doubt; 23) [listing 2 of 2 here], the result in series [18] was inactive.
